Experimental data from PMC9560598 (PLoS Pathogens, 2022).
Where “and” joins values, the source holds several entries; their conditions need not be identical. Equal entries are not always repeated. Where two headings read alike, the source gives them in different places. Bridge positions count the residues as written; N and C are the ends. Ends that are not written are not given here. Peptide text beside a SMILES is read from it.

Experiments:
[1] = system: encapsulated WT B. anthracis Ames bacilli; conditions: for killing: encapsulated WT Ames bacilli, 2 h
[2] = system: encapsulated killed WT B. anthracis bacilli; type: cell-based, Bacillus anthracis
[3] = type: binding, Bacillus anthracis; conditions: n = 3
[4] = system: non-encapsulated Sterne strain of B. anthracis; conditions: cited from earlier work
[5] = system: encapsulated WT B. anthracis Ames bacilli; type: cell-based, Bacillus anthracis

Molecule	Concentrations at which bactericidal activity (significant killing) was observed [1]	killing ([1]; 20 μg/ml)	Binding to purified capsule (shift in electrophoretic mobility towards the cathode) [3]	Killing of the non-encapsulated Sterne strain [4]	% of 0 μg/ml Control, Mean [1]	other results
Polymyxin B	1 to 100 µg/mL					
GIINTLQKYYCRVRGGRCAVLSCLPKEEQIGKCSTRGRKCCRRKK (disulfide 11-40, 18-33, 23-41 (inferred)) [HBD-3]	0.2 to 20 µg/mL	71%	bound to capsule	could kill		killing ([1]; 0.2 μg/ml): 58%; % reduction of MFI [2]: 29.6639% and 31.2268% and 35.1463% and 34.7672%; % reduction of MFI, avg [2]: 32.7011%; mean fluorescence intensity (MFI) [2]: 706.28 and 766.2 and 635.97 and 635.34 and 496.77 and 526.94 and 412.45 and 414.45; mean fluorescence intensity (MFI), avg [2]: 685.947 and 462.653; Localisation of HBD-3 on bacilli [5]: only on the outer surface of the capsule
Melittin	0.1 to 100 µg/mL					
Nisin	0.1 to 100 µg/mL					
CC[C@H](C)[C@@H]1NC(=O)[C@H](CCCCN)NC(=O)[C@H]([C@@H](C)O)NC(=O)[C@H](Cc2ccccc2)NC(=O)[C@H]([C@@H](C)CC)NC(=O)[C@@H]2CCCN2C(=O)[C@@H]2CSSC[C@@H](C(=O)N[C@@H](CCCCN)C(=O)O)NC(=O)[C@@H]3CSSC[C@H](NC(=O)[C@H](CC(N)=O)NC(=O)[C@H](Cc4ccc(O)cc4)NC(=O)[C@H](Cc4c[nH]cn4)NC(=O)[C@@H](N)CC(=O)O)C(=O)N[C@@H](C(C)C)C(=O)N[C@@H](CO)C(=O)N[C@@H](CO)C(=O)NCC(=O)NCC(=O)N[C@@H](CCC(N)=O)C(=O)N[C@@H](CSSC[C@H](NC(=O)[C@H]([C@@H](C)O)NC(=O)CNC(=O)[C@H](CCC(N)=O)NC1=O)C(=O)N[C@@H](Cc1ccc(O)cc1)C(=O)N[C@@H](CCCNC(=N)N)C(=O)NCC(=O)N[C@@H](CCCCN)C(=O)N[C@@H](C)C(=O)N[C@@H](CCCCN)C(=O)N3)C(=O)N[C@@H](CC(C)C)C(=O)N[C@@H](Cc1ccc(O)cc1)C(=O)N[C@@H](CO)C(=O)N[C@@H](C)C(=O)N2 [HBD-1] (H-DHYNCVSSGGQCLYSACPIFTKIQGTCYRGKAKCCK-OH; disulfide 5-34, 12-27, 17-35 (inferred); N-terminus and C-terminus assumed)		41%		could not	59.1%	
GIGDPVTCLKSGAICHPVFCPRRYKQIGTCGLPGTKCCKKP (disulfide 8-37, 15-30, 20-38 (inferred)) [HBD-2]		65%	bound to capsule	could not	34.5% and 26.0%	Bactericidal activity against the Sterne strain [4]: modest bactericidal activity
